The supplement of paper PMC4862054
“And” between values parts separate entries of the source, which are not always exact repeats. Identical values can stand only once.

What was measured:
Settings in all cases: incubation time: 72 h
HCC1143 = assay: normalised viability (% of control), CellTiter-Blue; higher = more viable cells (about 100 = DMSO control)
Protocol: (§1)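 DSRT, CellTiter-Blue viability, 72 h incubation. Signal is normalised to DMSO and benzethonium chloride controls. Value is the normalised response at dose 3.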

HCC1937 [1] = assay: as above
Protocol: as §1

MDA-MB-468 [2] = assay: as above
Protocol: as §1

SK-BR-3 = assay: as above
Protocol: as §1

MDA-MB-231 = assay: as above
Protocol: as §1

BT-549 [3] = assay: as above
Protocol: as §1

BT-474 = assay: as above
Protocol: as §1

MDA-MB-436 = assay: as above
Protocol: as §1

CAL-148 [4] = assay: as above
Protocol: as §1

Hs578T [5] = assay: as above
Protocol: as §1

HCC1599 = assay: as above
Protocol: as §1

MDA-MB-453 [6] = assay: as above
Protocol: as §1

DU-4475 [7] = assay: as above
Protocol: as §1

CAL-51 [8] = assay: as above
Protocol: as §1

HDQ-P1 = assay: as above
Protocol: as §1

CAL-120 [9] = assay: as above
Protocol: as §1

MFM-223 = assay: as above
Protocol: as §1

CAL-85-1 = assay: as above
Protocol: as §1

HCC1937 [10] = assay: drug sensitivity score (DSS), CellTiter-Blue viability (DSS (AUC-based score)); higher = stronger viability inhibition; extreme values may be limits of the assay
Protocol: (§2)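 DSRT with the CellTiter-Blue (resazurin reduction) viability readout, fluorescence 560/590 nm, 72 h incubation. Plates were normalised to DMSO and benzethonium chloride controls. DSS is computed from the area under the fitted dose-response curve (5 or 9 concentrations).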

MDA-MB-468 [11] = assay: as above
Protocol: as §2

BT-549 [12] = assay: as above
Protocol: as §2

CAL-148 [13] = assay: as above
Protocol: as §2

Hs578T [14] = assay: as above
Protocol: as §2

MDA-MB-453 [15] = assay: as above
Protocol: as §2

DU-4475 [16] = assay: as above
Protocol: as §2

CAL-51 [17] = assay: as above
Protocol: as §2

CAL-120 [18] = assay: as above
Protocol: as §2

Cn1nnc2c(C(N)=O)ncn2c1=O [Temozolomide]
normalised viability (HCC1143; 100 nM): 85.4% | normalised viability (HCC1937 [1]; 100 nM): 100% | normalised viability (MDA-MB-468 [2]; 100 nM): 95.7% | normalised viability (SK-BR-3; 100 nM): 96.2% | normalised viability (MDA-MB-231; 100 nM): 104% | normalised viability (BT-549 [3]; 100 nM): 83.6% | normalised viability (BT-474; 100 nM): 98.2% | normalised viability (MDA-MB-436; 100 nM): 94.5% | normalised viability (CAL-148 [4]; 10 nM): 90.4% | normalised viability (Hs578T [5]; 100 nM): 81.3% | normalised viability (HCC1599; 100 nM): 115% | normalised viability (MDA-MB-453 [6]; 10 nM): 101% | normalised viability (DU-4475 [7]; 10 nM): 124% | normalised viability (CAL-51 [8]; 10 nM): 98.5% | normalised viability (HDQ-P1; 10 nM): 92.3% | normalised viability (CAL-120 [9]; 100 nM): 95.9% | normalised viability (MFM-223; 100 nM): 105% | normalised viability (CAL-85-1; 10 nM): 102% | drug sensitivity score (HCC1937 [10]): 0 | drug sensitivity score (MDA-MB-468 [11]): 0 | drug sensitivity score (BT-549 [12]): 2.1 | drug sensitivity score (CAL-148 [13]): 0 | drug sensitivity score (Hs578T [14]): 0 | drug sensitivity score (MDA-MB-453 [15]): 0 | drug sensitivity score (DU-4475 [16]): 0 | drug sensitivity score (CAL-51 [17]): 0 | drug sensitivity score (CAL-120 [18]): 0

C[C@]12C=CC(=O)C=C1CC[C@@H]1[C@@H]2C(=O)C[C@@]2(C)[C@H]1CC[C@]2(O)C(=O)CO [Prednisone]
normalised viability (HCC1143; 100 nM): 101% | normalised viability (HCC1937 [1]; 100 nM): 100% | normalised viability (MDA-MB-468 [2]; 100 nM): 99.2% | normalised viability (SK-BR-3; 100 nM): 77% | normalised viability (MDA-MB-231; 100 nM): 100% | normalised viability (BT-549 [3]; 100 nM): 99.2% | normalised viability (BT-474; 100 nM): 117% | normalised viability (MDA-MB-436; 100 nM): 108% | normalised viability (CAL-148 [4]; 10 nM): 98.2% | normalised viability (Hs578T [5]; 100 nM): 77.9% | normalised viability (HCC1599; 100 nM): 98.5% | normalised viability (MDA-MB-453 [6]; 10 nM): 112% | normalised viability (DU-4475 [7]; 10 nM): 97.9% | normalised viability (CAL-51 [8]; 10 nM): 102% | normalised viability (HDQ-P1; 10 nM): 104% | normalised viability (CAL-120 [9]; 100 nM): 78.2% | normalised viability (MFM-223; 100 nM): 92.3% | normalised viability (CAL-85-1; 10 nM): 109% | drug sensitivity score (HCC1937 [10]): 0 | drug sensitivity score (MDA-MB-468 [11]): 0 | drug sensitivity score (BT-549 [12]): 0 | drug sensitivity score (CAL-148 [13]): 0 | drug sensitivity score (Hs578T [14]): 0 | drug sensitivity score (MDA-MB-453 [15]): 0 | drug sensitivity score (DU-4475 [16]): 0 | drug sensitivity score (CAL-51 [17]): 0 | drug sensitivity score (CAL-120 [18]): 0

CCCCCOC(=O)Nc1nc(=O)n([C@@H]2O[C@H](C)[C@@H](O)[C@H]2O)cc1F [Capecitabine]
normalised viability (HCC1937 [1]; 100 nM): 86.1% and 80.9% | normalised viability (MDA-MB-468 [2]; 100 nM): 101% and 111% | normalised viability (SK-BR-3; 100 nM): 77.5% and 96.3% | normalised viability (MDA-MB-231; 100 nM): 98.2% and 87% | normalised viability (BT-549 [3]; 100 nM): 103% and 97.5% | normalised viability (BT-474; 100 nM): 114% and 99.9% | normalised viability (MDA-MB-436; 100 nM): 95.8% and 95.6% | normalised viability (CAL-148 [4]; 10 nM): 86.9% and 94.2% | normalised viability (Hs578T [5]; 100 nM): 83.7% and 96.8% | normalised viability (HCC1599; 100 nM): 123% and 106% | normalised viability (MDA-MB-453 [6]; 10 nM): 94.8% and 93.2% | normalised viability (DU-4475 [7]; 10 nM): 97.4% and 107% | normalised viability (CAL-51 [8]; 10 nM): 110% and 102% | normalised viability (HDQ-P1; 10 nM): 106% and 91.4% | normalised viability (CAL-120 [9]; 100 nM): 85.3% and 95.2% | normalised viability (MFM-223; 100 nM): 87.7% and 104% | normalised viability (CAL-85-1; 10 nM): 96.7% and 98.3% | drug sensitivity score (HCC1937 [10]): 0 | drug sensitivity score (MDA-MB-468 [11]): 0 | drug sensitivity score (BT-549 [12]): 0 | drug sensitivity score (CAL-148 [13]): 0 | drug sensitivity score (Hs578T [14]): 0 | drug sensitivity score (DU-4475 [16]): 0 | drug sensitivity score (CAL-51 [17]): 0 | drug sensitivity score (CAL-120 [18]): 0

NC1(c2ccc(-c3nc4ccn5c(=O)[nH]nc5c4cc3-c3ccccc3)cc2)CCC1 [MK-2206]
normalised viability (HCC1143; 10 nM): 121% | normalised viability (HCC1937 [1]; 10 nM): 80.7% | normalised viability (MDA-MB-468 [2]; 10 nM): 109% | normalised viability (SK-BR-3; 10 nM): 79% | normalised viability (MDA-MB-231; 10 nM): 104% | normalised viability (BT-549 [3]; 10 nM): 107% | normalised viability (BT-474; 10 nM): 112% | normalised viability (MDA-MB-436; 10 nM): 107% | normalised viability (CAL-148 [4]; 1 nM): 105% | normalised viability (Hs578T [5]; 10 nM): 98.5% | normalised viability (HCC1599; 10 nM): 97.4% | normalised viability (MDA-MB-453 [6]; 1 nM): 117% | normalised viability (DU-4475 [7]; 1 nM): 107% | normalised viability (CAL-51 [8]; 1 nM): 100% | normalised viability (HDQ-P1; 1 nM): 103% | normalised viability (CAL-120 [9]; 10 nM): 106% | normalised viability (MFM-223; 10 nM): 105% | normalised viability (CAL-85-1; 1 nM): 92.2% | drug sensitivity score (HCC1937 [10]): 0 | drug sensitivity score (MDA-MB-468 [11]): 2.36 | drug sensitivity score (BT-549 [12]): 0 | drug sensitivity score (CAL-148 [13]): 1.65 | drug sensitivity score (Hs578T [14]): 0 | drug sensitivity score (MDA-MB-453 [15]): 4.04 | drug sensitivity score (DU-4475 [16]): 0 | drug sensitivity score (CAL-51 [17]): 1.04 | drug sensitivity score (CAL-120 [18]): 0

O=C(c1cc(Cc2n[nH]c(=O)c3ccccc23)ccc1F)N1CCN(C(=O)C2CC2)CC1 [Olaparib]
normalised viability (HCC1143; 100 nM): 88.2% | normalised viability (HCC1937 [1]; 100 nM): 77.9% | normalised viability (MDA-MB-468 [2]; 100 nM): 99.8% | normalised viability (SK-BR-3; 100 nM): 81.2% | normalised viability (MDA-MB-231; 100 nM): 76.5% | normalised viability (BT-549 [3]; 100 nM): 102% | normalised viability (BT-474; 100 nM): 105% | normalised viability (MDA-MB-436; 100 nM): 107% | normalised viability (CAL-148 [4]; 10 nM): 83.3% | normalised viability (Hs578T [5]; 100 nM): 80.9% | normalised viability (HCC1599; 100 nM): 114% | normalised viability (MDA-MB-453 [6]; 10 nM): 97.8% | normalised viability (DU-4475 [7]; 10 nM): 97.5% | normalised viability (CAL-51 [8]; 10 nM): 101% | normalised viability (HDQ-P1; 10 nM): 99.4% | normalised viability (CAL-120 [9]; 100 nM): 76.2% | normalised viability (MFM-223; 100 nM): 103% | normalised viability (CAL-85-1; 10 nM): 88.1% | drug sensitivity score (HCC1937 [10]): 11.2 | drug sensitivity score (MDA-MB-468 [11]): 2.78 | drug sensitivity score (BT-549 [12]): 0 | drug sensitivity score (CAL-148 [13]): 0 | drug sensitivity score (Hs578T [14]): 0 | drug sensitivity score (MDA-MB-453 [15]): 0 | drug sensitivity score (DU-4475 [16]): 3.83 | drug sensitivity score (CAL-51 [17]): 3.33 | drug sensitivity score (CAL-120 [18]): 0

CO[C@H](C(=O)[C@@H](O)[C@@H](C)O)[C@@H]1Cc2cc3cc(O[C@H]4C[C@@H](O[C@@H]5C[C@@H](O)[C@H](O)[C@@H](C)O5)[C@H](O)[C@@H](C)O4)c(C)c(O)c3c(O)c2C(=O)[C@H]1O[C@H]1C[C@@H](O[C@@H]2C[C@@H](O)[C@@H](O[C@@H]3C[C@](C)(O)[C@H](O)[C@@H](C)O3)[C@@H](C)O2)[C@H](O)[C@@H](C)O1 [Plicamycin]
normalised viability (HCC1143; 100 nM): 46% and 30.6% | normalised viability (HCC1937 [1]; 100 nM): 48.3% and 41.4% | normalised viability (MDA-MB-468 [2]; 100 nM): 9.16% and 7.26% | normalised viability (SK-BR-3; 100 nM): 30.8% and 21.9% | normalised viability (MDA-MB-231; 100 nM): 34.4% and 28.9% | normalised viability (BT-549 [3]; 100 nM): 20.2% and 17% | normalised viability (BT-474; 100 nM): 73.2% and 72.3% | normalised viability (MDA-MB-436; 100 nM): 30.2% and 23.4% | normalised viability (CAL-148 [4]; 10 nM): 82.9% and 99.5% | normalised viability (Hs578T [5]; 100 nM): 13% and 6.55% | normalised viability (HCC1599; 100 nM): 63% and 52.6% | normalised viability (MDA-MB-453 [6]; 10 nM): 111% and 91.1% | normalised viability (DU-4475 [7]; 10 nM): 88.6% and 110% | normalised viability (CAL-51 [8]; 10 nM): 98.2% and 109% | normalised viability (CAL-120 [9]; 100 nM): 45% and 34.8% | normalised viability (MFM-223; 100 nM): 71.4% and 61.1% | normalised viability (CAL-85-1; 10 nM): 96.7% and 94.2% | drug sensitivity score (HCC1937 [10]): 21.1 and 22.3 | drug sensitivity score (MDA-MB-468 [11]): 29.9 and 30.3 | drug sensitivity score (BT-549 [12]): 27.1 and 27.9 | drug sensitivity score (CAL-148 [13]): 25.6 and 24.2 | drug sensitivity score (Hs578T [14]): 28 and 31.7 | drug sensitivity score (MDA-MB-453 [15]): 22.7 and 24.3 | drug sensitivity score (DU-4475 [16]): 28 and 28.2 | drug sensitivity score (CAL-51 [17]): 22.1 and 22.3 | drug sensitivity score (CAL-120 [18]): 22.5 and 23.6
